From US8148407B2, “Compounds derived from 5-thioxylose and their use in therapeutics” (Laboratories Fournier S.A., priority 2005, dated 2012)

Row | SMILES | melting point
1 | N#Cc1ccc(-c2cncc(O[C@@H]3SC[C@@H](O)[C@H](O)[C@H]3O)c2)cc1Cl | 202 to 204 °C
2 | O[C@@H]1[C@@H](O)[C@H](Oc2cccnc2-c2ccccc2)SC[C@H]1O [Example 24, 2-phenyl-3-pyridinyl 5-thio-β-D-xylopyranoside] | 89 to 108 °C
3 | O[C@@H]1[C@@H](O)[C@H](Oc2cncc(Oc3ccccc3)c2)SC[C@H]1O [Example 26, 5-phenoxy-3-pyridinyl 5-thio-β-D-xylopyranoside] | 226 °C
4 | N#Cc1ccc(-c2ccncc2O[C@@H]2SC[C@@H](O)[C@H](O)[C@H]2O)cc1 [Example 28, 4-(4-cyanophenyl)-3-pyridinyl 5-thio-β-D-xylopyranoside] | 238 °C
5 | O[C@@H]1[C@@H](O)[C@H](Oc2cncc(-c3ccc(N4CCCCC4)cc3)c2)SC[C@H]1O [Example 48, 5-[4-(1-piperidinyl)phenyl]-3-pyridinyl 5-thio-β-D-xylopyranoside] | 196 °C
6 | CN(C)c1ccc(-c2cncc(O[C@@H]3SC[C@@H](O)[C@H](O)[C@H]3O)c2)cc1 [Example 50, 5-[4-(dimethylamino)phenyl]-3-pyridinyl 5-thio-β-D-xylopyranoside] | 240 °C
7 | Cc1ccc(-c2cncc(O[C@@H]3SC[C@@H](O)[C@H](O)[C@H]3O)c2)cc1 [Example 52, 5-(4-methylphenyl)-3-pyridinyl 5-thio-β-D-xylopyranoside] | 228 °C
8 | N#Cc1cccc(-c2cncc(O[C@@H]3SC[C@@H](O)[C@H](O)[C@H]3O)c2)c1 [Example 55, 5-(3-cyanophenyl)-3-pyridinyl 5-thio-β-D-xylopyranoside] | 172 °C
9 | O[C@@H]1[C@@H](O)[C@H](Oc2cnccc2-c2ccc(F)cc2)SC[C@H]1O [Example 57, 4-(4-fluorophenyl)-3-pyridinyl 5-thio-β-D-xylopyranoside] | 219 °C
10 | N#Cc1cc(-c2cncc(O[C@@H]3SC[C@@H](O)[C@H](O)[C@H]3O)c2)ccc1F [Example 63, 5-(3-cyano-4-fluorophenyl)-3-pyridinyl 5-thio-β-D-xylopyranoside] | 197 °C
11 | COc1ccc(-c2cncc(O[C@@H]3SC[C@@H](O)[C@H](O)[C@H]3O)c2)cc1Cl [Example 65, 5-(3-chloro-4-methoxyphenyl)-3-pyridinyl 5-thio-β-D-xylopyranoside] | 165 °C
12 | COc1cccc(-c2cncc(O[C@@H]3SC[C@@H](O)[C@H](O)[C@H]3O)c2)c1 [Example 67, 5-(3-methoxyphenyl)-3-pyridinyl 5-thio-β-D-xylopyranoside] | 200 °C
13 | CC(C)Oc1ccc(-c2cncc(O[C@@H]3SC[C@@H](O)[C@H](O)[C@H]3O)c2)cc1 [Example 69, 5-[4-(1-methylethoxy)phenyl]-3-pyridinyl 5-thio-β-D-xylopyranoside] | 158 °C
14 | COc1ccc(-c2cncc(O[C@@H]3SC[C@@H](O)[C@H](O)[C@H]3O)c2)cc1OC [Example 71, 5-(3,4-dimethoxyphenyl)-3-pyridinyl 5-thio-β-D-xylopyranoside] | 211 °C
15 | O[C@@H]1[C@@H](O)[C@H](Oc2cccnc2-c2ccc(F)cc2)SC[C@H]1O [Example 73, 2-(4-fluorophenyl)-3-pyridinyl 5-thio-β-D-xylopyranoside] | 110 °C
16 | COc1ccc(-c2nccc(C)c2O[C@@H]2SC[C@@H](O)[C@H](O)[C@H]2O)cc1 [Example 75, 2-(4-methoxyphenyl)-4-methyl-3-pyridinyl 5-thio-β-D-xylopyranoside] | 101 °C
17 | COc1ccc(-c2cc(O[C@@H]3SC[C@@H](O)[C@H](O)[C@H]3O)ccn2)cc1 [Example 77, 2-(4-methoxyphenyl)-4-pyridinyl 5-thio-β-D-xylopyranoside] | 150 to 154 °C
18 | COc1cc(F)c(-c2cncc(O[C@@H]3SC[C@@H](O)[C@H](O)[C@H]3O)c2)c(F)c1 [Example 81, 5-(2,6-difluoro-4-methoxyphenyl)-3-pyridinyl 5-thio-β-D-xylopyranoside] | 200 °C
19 | COc1c(C)cc(-c2cncc(O[C@@H]3SC[C@@H](O)[C@H](O)[C@H]3O)c2)cc1C [Example 83, 5-(3,5-dimethyl-4-methoxyphenyl)-3-pyridinyl 5-thio-β-D-xylopyranoside] | 173 °C
20 | O[C@@H]1[C@@H](O)[C@H](Oc2cncc(-c3ccc(F)cc3F)c2)SC[C@H]1O [Example 85, 5-(2,4-difluorophenyl)-3-pyridinyl 5-thio-β-D-xylopyranoside] | 221 °C
21 | COc1cc(F)ccc1-c1cncc(O[C@@H]2SC[C@@H](O)[C@H](O)[C@H]2O)c1 [Example 87, 5-(4-fluoro-2-methoxyphenyl)-3-pyridinyl 5-thio-β-D-xylopyranoside] | 218 to 228 °C
22 | N#Cc1ccc(-c2cncc(O[C@@H]3SC[C@@H](O)[C@H](O)[C@H]3O)c2)cc1F [Example 91, 5-(4-cyano-3-fluorophenyl)-3-pyridinyl 5-thio-β-D-xylopyranoside] | 214 °C

Row | SMILES | melting point
23 | COc1ccc(-c2ccc(O[C@@H]3SC[C@@H](O)[C@H](O)[C@H]3O)cn2)cc1 [Example 93, 6-(4-methoxyphenyl)-3-pyridinyl 5-thio-β-D-xylopyranoside] | 164 °C
24 | OCc1ccc(-c2ccc(O[C@@H]3SC[C@@H](O)[C@H](O)[C@H]3O)cn2)cc1 [Example 95, 6-[4-(hydroxymethyl)phenyl]-3-pyridinyl 5-thio-β-D-xylopyranoside] | 215 °C
25 | COc1ccc(-c2cncc(O[C@@H]3SC[C@@H](O)[C@H](O)[C@H]3O)c2)c(C)c1 [Example 105, 5-(4-methoxy-2-methylphenyl)-3-pyridinyl 5-thio-β-D-xylopyranoside] | 231 °C
26 | Cc1ccc(-c2cncc(O[C@@H]3SC[C@@H](O)[C@H](O)[C@H]3O)c2)cc1F [Example 107, 5-(3-fluoro-4-methylphenyl)-3-pyridinyl 5-thio-β-D-xylopyranoside] | 213 °C
27 | Cc1ccc(-c2cncc(O[C@@H]3SC[C@@H](O)[C@H](O)[C@H]3O)c2)cc1C [Example 109, 5-(3,4-dimethylphenyl)-3-pyridinyl 5-thio-β-D-xylopyranoside] | 184 °C
28 | Cc1ccc(-c2cncc(O[C@@H]3SC[C@@H](O)[C@H](O)[C@H]3O)c2)c(Cl)c1 [Example 111, 5-(2-chloro-4-methylphenyl)-3-pyridinyl 5-thio-β-D-xylopyranoside] | 207 °C
29 | COc1ccc(-c2cncc(O[C@@H]3SC[C@@H](O)[C@H](O)[C@H]3O)c2)c(Cl)c1 [Example 113, 5-(2-chloro-4-methoxyphenyl)-3-pyridinyl 5-thio-β-D-xylopyranoside] | 218 °C
30 | CC(=O)O[C@@H]1[C@@H](OC(C)=O)[C@H](OC(C)=O)CS[C@H]1Oc1cncc(S(C)(=O)=O)c1 [Example 114, 5-methylsulfonyl-3-pyridinyl 2,3,4-tri-O-acetyl-5-thio-β-D-xylopyranoside] | 193 °C
31 | CS(=O)(=O)c1cncc(O[C@@H]2SC[C@@H](O)[C@H](O)[C@H]2O)c1 [Example 115, 5-methylsulfonyl-3-pyridinyl 5-thio-β-D-xylopyranoside] | 183 °C
32 | O=C(NCc1ccccc1)c1ccc(O[C@@H]2SC[C@@H](O)[C@H](O)[C@H]2O)cn1 [Example 117, 6-{[(phenylmethyl)amino]carbonyl}-3-pyridinyl 5-thio-β-D-xylopyranoside] | 89 to 91 °C
33 | CC(=O)O[C@@H]1[C@@H](OC(C)=O)[C@H](OC(C)=O)CS[C@H]1Oc1cncc(C(C)=O)c1 [Example 118, 5-acetyl-3-pyridinyl 2,3,4-tri-O-acetyl-5-thio-β-D-xylopyranoside] | 157 °C
34 | CC(=O)c1cccc(-c2ccc(O[C@@H]3SC[C@@H](O)[C@H](O)[C@H]3O)cn2)c1 [Example 124, 6-(3-acetylphenyl)-3-pyridinyl 5-thio-β-D-xylopyranoside] | 159 to 163 °C
35 | O[C@@H]1[C@@H](O)[C@H](Oc2ccc(-c3ccc(OC(F)(F)F)cc3)nc2)SC[C@H]1O [Example 125, 6-[4-(trifluoromethoxy)phenyl]-3-pyridinyl 5-thio-β-D-xylopyranoside] | 184 to 186 °C
36 | O[C@@H]1[C@@H](O)[C@H](Oc2cccnc2-c2ccc(OC(F)(F)F)cc2)SC[C@H]1O [Example 127, 2-[4-(trifluoromethoxy)phenyl]-3-pyridinyl 5-thio-β-D-xylopyranoside] | 114 to 119 °C
37 | CC(=O)c1cccc(-c2ncccc2O[C@@H]2SC[C@@H](O)[C@H](O)[C@H]2O)c1 [Example 128, 2-(3-acetylphenyl)-3-pyridinyl 5-thio-β-D-xylopyranoside] | 128 to 133 °C
38 | O[C@@H]1[C@@H](O)[C@H](Oc2ccc(-c3ccc(F)cc3)nc2)SC[C@H]1O [Example 129, 6-(4-fluorophenyl)-3-pyridinyl 5-thio-β-D-xylopyranoside] | 180 to 183 °C
39 | O=S(=O)(c1ccccc1)c1cncc(O[C@@H]2SC[C@@H](O)[C@H](O)[C@H]2O)c1 [Example 140, 5-(phenylsulfonyl)-3-pyridinyl 5-thio-β-D-xylopyranoside] | 86 °C
40 | O=S(=O)(c1ccc(F)cc1)c1cncc(O[C@@H]2SC[C@@H](O)[C@H](O)[C@H]2O)c1 [Example 142, 5-[(4-fluorophenyl)sulfonyl]-3-pyridinyl 5-thio-β-D-xylopyranoside] | 93 to 96 °C
41 | O[C@@H]1[C@@H](O)[C@H](Oc2cncc(-c3c(F)cc(F)cc3F)c2)SC[C@H]1O [Example 144, 5-(2,4,6-trifluorophenyl)-3-pyridinyl 5-thio-β-D-xylopyranoside] | 228 °C
42 | COc1c(F)cc(-c2cncc(O[C@@H]3SC[C@@H](O)[C@H](O)[C@H]3O)c2)cc1F [Example 146, 5-(3,5-difluoro-4-methoxyphenyl)-3-pyridinyl 5-thio-β-D-xylopyranoside] | 203 °C
43 | N#Cc1cc(F)ccc1-c1cncc(O[C@@H]2SC[C@@H](O)[C@H](O)[C@H]2O)c1 [Example 148, 5-(2-cyano-4-fluorophenyl)-3-pyridinyl 5-thio-β-D-xylopyranoside] | 198 to 200 °C
